A word on the inhibition: it is the drop in the measured response relative to a control, in per cent. What is called melting point is the temperature of the solid-liquid transition.

Some results are limits rather than exact numbers.

The source of these data is US20180370927A1, “MICROBIOCIDAL OXADIAZOLE DERIVATIVES” (SYNGENTA PARTICIPATIONS AG, priority 2015, published 2018).

Series [1] deals with Puccinia recondita f. Sp. Tritici. Nature of the series: Puccinia recondita f. sp. tritici / wheat / leaf disc preventative (brown rust). The format is in vivo. The conditions noted are these: foliar, 200 ppm in the applied formulation, wheat leaf segments, preventative, assessed 7 to 9 days after application, read-out: disease control compared to untreated control leaf disks. The method in brief:
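Wheat cv. Kanzler leaf segments on agar sprayed with formulated compound in water, inoculated with rust spores 1 day later. Incubated at 19° C, 75% rh, 12 h light/12 h dark; percent disease control versus untreated scored 7 to 9 days after application; tested at 200 ppm.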

The subject of the next series is Phakopsora pachyrhizi. Nature of the series: Phakopsora pachyrhizi / soybean / leaf disc preventative (Asian soybean rust). Particulars: foliar, 200 ppm in the applied formulation, soybean leaf disks, assessed 12 to 14 days after application, read-out: disease control compared to untreated control leaf disks. Type of series: in vivo. In short, it runs like this: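 Soybean leaf discs on water agar were sprayed with formulated compound diluted in water, then inoculated one day later with spore suspension on the lower leaf surface. Held 24-36 h dark at 20° C., 75% RH, then 12 h light/day; percent disease control versus untreated scored 12 to 14 days after application.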

Series [2] relates to Puccinia recondita f. Sp. Tritici. Nature of the series: Puccinia recondita f. sp. tritici / wheat / leaf disc curative (brown rust). The conditions noted are these: foliar, 200 ppm in the applied formulation, wheat leaf segments, curative (applied 1 day after inoculation), assessed 6 to 8 days after application, read-out: disease control compared to untreated control leaf disks. The format is in vivo. The method in brief: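 Curative treatment: formulated compound in water was applied 1 day post-inoculation to spore-inoculated wheat cv. Kanzler segments held on agar. Segments stayed at 19° C and 75% relative humidity (12 h photoperiod after application), and disease control relative to untreated checks was assessed 6 to 8 days later.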

For series [3], the system named is Glomerella lacenarium (Colletotrichum lacenarium). Nature of the series: Glomerella lacenarium (Colletotrichum lacenarium) liquid culture / cucumber / preventative (anthracnose). The format is cell-based. The conditions noted are these: 20 ppm in the applied formulation, liquid culture in PDB, 24° C., 3 to 4 days after application, read-out: disease control (inhibition of growth, photometric) compared to untreated control. In short, it runs like this:
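At 20 ppm in the applied formulation, compounds were mixed with fungal spores in potato dextrose broth and held at 24° C. After 3–4 days, photometric growth measurement gave percent antifungal activity relative to untreated control.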

The subject of another series is Uromyces viciae-Fabae. Nature of the series: Uromyces viciae-fabae / field bean / leaf disc preventative (faba-bean rust). Particulars: foliar, 288 h, 100 ppm in the applied formulation, field bean leaf discs, assessed 12 days after application, read-out: disease control compared to untreated control leaf discs. The format is in vivo. How it is done:
Leaf disks or leaf segments of various plant species are cut from plants grown in a greenhouse. The cut leaf disks or segments are placed in multiwell plates (24-well format) onto water agar. The leaf disks are sprayed with a test solution before (preventative) or after (curative) inoculation. Compounds to be tested are prepared as DMSO solutions (max. 10 mg/mL) which are diluted to the appropriate concentration with 0.025% Tween20 just before spraying. The inoculated leaf disks or segments are incubated under defined conditions (temperature, relative humidity, light, etc.) according to the respective test system. A single evaluation of disease level is carried out 3 to 14 days after inoculation, depending on the pathosystem. Percent disease control relative to the untreated check leaf disks or segments is then calculated.
Example 5: Fungicidal Activity Against Uromyces viciae-Fabael Field Bean/Leaf Disc Preventative (Faba-Bean Rust)
Field bean leaf discs are placed on water agar in multiwell plates (96-well format) and 10 μL of the formulated test compound diluted in acetone and a spreader pipetted onto the leaf disc. Two hours after application leaf discs are inoculated by spraying a spore suspension on the lower leaf surface. The leaf discs are incubated in a climate cabinet at 22° C. with 18 hour days and 70% relative humidity. The activity of a compound is assessed as percent disease control compared to untreated when an appropriate level of disease damage appears in untreated check leaf disks (12 days after application).
The following compounds at 100 ppm in the applied formulation give at least 80% disease control in this test when compared to untreated control leaf discs under the same conditions, which show extensive disease development.

The molecule `CN(C)C(=O)C(=O)NCc1ccc(-c2noc(C(F)(F)F)n2)cc1` [Compound 4.2] showed a melting point of 107 to 112 °C. Further, the pest or weed control at 200 ppm in series [1] is not below 80%. The pest or weed control at 200 ppm in the series with Phakopsora pachyrhizi was not below 80%. In addition, the pest or weed control at 200 ppm in series [2] was not below 80%. Besides, in series [3], the inhibition at 20 ppm is not below 80%. The pest or weed control at 100 ppm in the series on Uromyces viciae-Fabae was not below 80%.
The molecule `COCCNC(=O)C(=O)Nc1ccc(-c2noc(C(F)(F)F)n2)cc1` [Compound 4.4, N-(2-methoxyethyl)-N′-[4-[5-(trifluoromethyl)-1,2,4-oxadiazol-3-yl]phenyl]oxamide] returned a melting point of 204 to 205 °C. In series [1], the pest or weed control at 200 ppm is not below 80%. Further, the pest or weed control at 200 ppm in the series with Phakopsora pachyrhizi is not below 80%. In addition, in series [2], the pest or weed control at 200 ppm is not below 80%. In the series on Uromyces viciae-Fabae, the pest or weed control at 100 ppm is not below 80%.
`CON(C)C(=O)C(=O)Nc1ccc(-c2noc(C(F)(F)F)n2)cc1` [Compound 4.9, N′-methoxy-N′-methyl-N-[4-[5-(trifluoromethyl)-1,2,4-oxadiazol-3-yl]phenyl]oxamide] came in with a melting point of 163 to 165 °C. For the same molecule, the pest or weed control at 200 ppm in series [1] was not below 80%. Besides, the pest or weed control at 200 ppm with Phakopsora pachyrhizi is not below 80%. In series [3], the inhibition at 20 ppm is not below 80%. In addition, in the series with Uromyces viciae-Fabae, the pest or weed control at 100 ppm was not below 80%.
`CN(C)C(=O)C(=O)Nc1ccc(-c2noc(C(F)(F)F)n2)cc1` [Compound 4.1, N′,N′-dimethyl-N-[4-[5-(trifluoromethyl)-1,2,4-oxadiazol-3-yl]phenyl]oxamide] came in with a melting point of 127 to 130 °C. The pest or weed control at 200 ppm in series [1] was not below 80%. In addition, the pest or weed control at 200 ppm in the series on Phakopsora pachyrhizi was not below 80%. Also, in series [2], the pest or weed control at 200 ppm was not below 80%. Further, in series [3], the inhibition at 20 ppm was not below 80%. For the same molecule, the pest or weed control at 100 ppm with Uromyces viciae-Fabae is not below 80%.
For `CNC(=O)C(=O)Nc1ccc(-c2noc(C(F)(F)F)n2)cc1` [Compound 4.7, N-methyl-N′-[4-[5-(trifluoromethyl)-1,2,4-oxadiazol-3-yl]phenyl]oxamide], the melting point fell in the range of 231 to 234 °C. Also, the pest or weed control at 200 ppm in series [1] was not below 80%. Besides, the pest or weed control at 200 ppm in the series with Phakopsora pachyrhizi was not below 80%. In addition, the pest or weed control at 200 ppm in series [2] was not below 80%. For the same molecule, the pest or weed control at 100 ppm in the series on Uromyces viciae-Fabae is not below 80%.
